According to patent publication US20100040565A1, “ACTIVE DELIVERY SYSTEMS FORMULATIONS” (Castle Beach, LLC, priority 2008, published 2010):

Assays:
[1] = assay type: physicochemical
Description: DEET is incorporated into the pores, if any present, and onto the surfaces of a carrier. The evaporation rate of DEET from a thin film was then measured by weight. The film was smeared onto a glass slide and its weight was measured as a function of time. The initial weight of the film was 0.0231 grams and the area that was covered was […] (thickness ca 10 microns). The weight of the film leveled off at 0.019 grams when the DEET was fully evaporated, approximately 36 hours after application. Half of the DEET, about 2 milligrams on 3 square inches, remained 16 hours after application.

[2] = Behaviour of the permethrin-on-carrier formulation on substrates (activity duration, spreading, adherence); details: permethrin trapped in porous carrier (Silcron G100) in barrier/transfer agent composition

Amount of DEET remaining ([1]; 16 h)	Time after application at which half of the DEET remained ([1]; thin film ca 10 microns on glass slide) [h]	Time until DEET was fully evaporated from the film ([1]; thin film ca 10 microns smeared on glass slide, initial film weight 0.0231 grams, time after application)	Weight at which the film leveled off ([1]; when the DEET was fully evaporated, initial film weight 0.0231 grams) [grams]	SMILES	Activity duration of permethrin in the formulation [2]
about 2 milligrams	16	approximately 36 hours	0.019	CCN(CC)C(=O)c1cccc(C)c1 [DEET]	
				CC1(C)C(C=C(Cl)Cl)C1C(=O)OCc1cccc(Oc2ccccc2)c1 (centres unmarked) [permethrin]	significantly prolonged
